From ChEMBL document CHEMBL1128922, “Thiophenesulfonamides as endothelin receptor antagonists” (Bioorg Med Chem Lett, 1996)
pIC50: −log10 of the molar value.

Experiments:
[1] = molecular target: T1, Endothelin-1 receptor (Homo sapiens, UniProt P25101); assay: Compound was tested for binding affinity against Endothelin A receptor
T1 sequence (P25101 whole entry): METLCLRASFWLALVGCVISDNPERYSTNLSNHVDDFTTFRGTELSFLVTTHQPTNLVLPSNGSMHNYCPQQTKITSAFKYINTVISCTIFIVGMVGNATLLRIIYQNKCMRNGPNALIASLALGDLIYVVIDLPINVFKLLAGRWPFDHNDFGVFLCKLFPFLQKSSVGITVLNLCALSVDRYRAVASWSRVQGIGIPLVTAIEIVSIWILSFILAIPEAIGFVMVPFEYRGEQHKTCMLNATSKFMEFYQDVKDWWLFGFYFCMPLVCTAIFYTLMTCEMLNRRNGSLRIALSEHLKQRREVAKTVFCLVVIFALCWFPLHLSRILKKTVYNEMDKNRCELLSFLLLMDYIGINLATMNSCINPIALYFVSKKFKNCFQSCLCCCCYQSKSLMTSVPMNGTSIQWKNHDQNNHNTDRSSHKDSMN

[2] = molecular target: T2, Endothelin receptor type B (Homo sapiens, UniProt P24530); assay: Compound was tested for binding affinity against Endothelin B receptor
T2 sequence (P24530 whole entry): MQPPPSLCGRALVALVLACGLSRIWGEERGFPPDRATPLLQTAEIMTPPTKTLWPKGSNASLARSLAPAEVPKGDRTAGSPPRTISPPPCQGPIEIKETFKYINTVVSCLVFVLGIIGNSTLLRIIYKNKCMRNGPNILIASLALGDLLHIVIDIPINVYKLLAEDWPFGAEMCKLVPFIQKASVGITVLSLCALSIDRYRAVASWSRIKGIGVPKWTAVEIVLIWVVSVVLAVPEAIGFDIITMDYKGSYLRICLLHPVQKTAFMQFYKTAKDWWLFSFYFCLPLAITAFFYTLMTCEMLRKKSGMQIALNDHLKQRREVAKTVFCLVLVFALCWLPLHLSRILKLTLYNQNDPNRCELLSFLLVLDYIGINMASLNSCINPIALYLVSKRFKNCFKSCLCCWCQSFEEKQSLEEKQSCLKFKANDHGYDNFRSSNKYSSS

SMILES | pIC50 [1] | pIC50 [2]
Cc1noc(NS(=O)(=O)c2ccccc2-c2ccccc2)c1Br | 7.79 | < 4.00
Cc1noc(NS(=O)(=O)c2cc(-c3ccccc3)cs2)c1Br | 5.47 | 4.87
Cc1noc(NS(=O)(=O)c2sccc2Cc2ccccc2)c1Br | 5.58 | 4.40
Cc1noc(NS(=O)(=O)c2ccsc2-c2ccccc2)c1Br | 6.22 | 4.13
Cc1noc(NS(=O)(=O)c2cccs2)c1Br | 5.72 | < 4.00
Cc1noc(NS(=O)(=O)c2ccccc2)c1Br | 5.60 | < 4.00
Cc1noc(NS(=O)(=O)c2ccsc2)c1Br | 5.56 | < 4.00
Cc1noc(NS(=O)(=O)c2sccc2Oc2ccccc2)c1Br | 5.84 | 4.45

Other lines, results leading:

pIC50 [1] | pIC50 [2] | SMILES
– | 5.54 | Cc1noc(NS(=O)(=O)c2sccc2-c2ccc(CC(C)C)cc2)c1Br
6.94 | 5.61 | Cc1cc(CCC(C)C)ccc1-c1ccsc1S(=O)(=O)Nc1onc(C)c1Br
6.48 | 4.21 | COc1ccc(-c2ccsc2S(=O)(=O)Nc2onc(C)c2Br)cc1
6.09 | 4.19 | Cc1noc(NS(=O)(=O)c2sccc2-c2ccccc2)c1Br
6.51 | < 4.00 | Cc1ccccc1-c1ccsc1S(=O)(=O)Nc1onc(C)c1Br
6.74 | – | Cc1noc(NS(=O)(=O)c2sccc2-c2ccc(CCC(C)C)cc2)c1Br
7.32 | 5.82 | Cc1cc(CC(C)C)ccc1-c1ccsc1S(=O)(=O)Nc1onc(C)c1Br
6.50 | 4.02 | Cc1ccc(-c2ccsc2S(=O)(=O)Nc2onc(C)c2Br)cc1
– | 5.09 | CCCc1ccc(-c2ccsc2S(=O)(=O)Nc2onc(C)c2Br)cc1
7.37 | 5.54 | CCCc1ccc(-c2ccsc2S(=O)(=O)Nc2onc(C)c2Br)c(C)c1
5.88 | 4.25 | COc1cccc(-c2ccsc2S(=O)(=O)Nc2onc(C)c2Br)c1
